Data as given in patent US11753626B2, “Tumor cell suspension cultures and related methods” (Beijing Percans Oncology Co., Ltd., priority 2016, dated 2023).

Test system: tumor cell clusters from colorectal cancer patients
Test: ex vivo drug sensitivity assay of tumor cell clusters in suspension culture (Edu incorporation)
Assay type: cell-based, human
Conditions: FIG. 4; test conditions of FIG. 3B; short-term suspension culture in defined growth medium
Description: Briefly, the non-tumor tissues and the necrotic fractions were carefully removed from the tumor specimen. The tumor tissues were cut into small pieces less than 1 mm in diameter using scissors. Minced tumor fractions were transferred into a sterile 100-ml triangle glass flask loaded with a magnet stir bar. A 10-15 ml digestion media containing 0.25 U/ml Liberase DH was added into the minced tumor tissues to start enzyme digestion. The enzyme mixture was incubated at 37° C. for 1-2 hours with moderate stirring. The partially digested tumor cell clusters were filtered through a 100-μm cell retainer. The filtrates were re-filtered through a 40-μm cell restrainer. The tumor cell clusters retained on the 40-μm cell restrainer was collected, wash twice with HBSS, then re-suspended in a defined growth media supplemented with cell growth factors and small molecule inhibitors.
For ex vivo drug sensitivity assays, the tumor cell clusters were recovered in a defined growth medium overnight. The defined growth medium was StemPro hESC SFM supplement with Nicotinamide, Wnt3A, Noggin, R-spondin-1, and Y27632. The tumor cell clusters were then exposed to drug (e.g., Docetaxel at 2 μM (Cmax)) for 24 hours before the drug was washed away. Following exposure with drug, the tumor cell clusters were labeled with 5-ethynyl-2′-deoxyuridine (Edu) to assess the tumor cell proliferation rates. The labeling started at 48 hours after the drug exposure and continued for 96 hours. In the control group, tumor cell clusters received no drug exposure with media change, but were similarly labeled with Edu. The labeled tumor cell clusters were dissociated into single cells and fixed. The fixed cells were stained with Hoechst 33342 in PBS containing 0.2% Triton X-100 overnight at 4° C. The incorporated Edu was detected by Click-iT reaction where fixed cells were incubated with a reaction mixture containing 1× Click-iT Edu reaction buffer, CuSO4, and azide-conjugated Alexa Fluor dye in the dark. The stained cells were washed with PBS before being distributed into a black wall plate for image acquisition and analysis.
For image acquisition and analysis, the stained tumor cells were imaged by a high-content screening (HCS) platform (Thermo Scientific Cellomics ArrayScan XTi HCS reader). The 10× objective was used to collect images. Twenty-five fields were imaged for each well, and more than 3000 cells were captured for the analysis. From the images two fluorescent signals were obtained from the HCS reader. Blue fluorescent signals recorded nucleus signals stained with Hoechst 33342, and green fluorescent signal detected the Edu incorporated in newly synthesized DNA. The Edu positive subpopulation cells percentage was calculated as percent of the total cell counts. […]

C[C@@H](Oc1cc(-c2cnn(C3CCNCC3)c2)cnc1N)c1c(Cl)ccc(F)c1Cl [crizotinib]
growth of tumor cell clusters (inhibition by tested drug): not completely inhibited

C#Cc1cccc(Nc2ncnc3cc(OCCOC)c(OCCOC)cc23)c1 [erlotinib]
growth of tumor cell clusters (inhibition by tested drug): not completely inhibited

O=C1[O][Pt]2([NH][C@@H]3CCCC[C@H]3[NH]2)[O]C1=O [oxaliplatin]
growth of tumor cell clusters (inhibition by tested drug): not completely inhibited

CNC(=O)c1cc(Oc2ccc(NC(=O)Nc3ccc(Cl)c(C(F)(F)F)c3)cc2)ccn1 [sorafenib]
growth of tumor cell clusters (inhibition by tested drug): not completely inhibited
